Data on 1 compound can be found in PMC6389962 (Nature Communications, 2019).

The nature of series [1]: Pharmacokinetic evaluation in mice, i.v. (first study, peer review file Table 3). The settings on record: in vivo, normal C57BL/6J mice, male, n = 3, 25 μg/mouse (~250 nmol/kg) intravenous, first PK study. As for the experimental part:
Our current understanding is that […]
ways (See Figure below for reviewing only).
(1 picture or pasted object on this page, not shown here)
PK mice Table 3 | Pharmacokinetic evaluation in mice by i.v.
*** (m L/m i n/ k g) (mL/kg) (m in)
Formulation: 2 mg/mL in PB S 1X.
An additional table has been prepared (Table 3) and the following text was added:
“A pharmacokinetic study was also conducted in mice to access the pharmacologic […]
The manuscript by Fremaux et al. describes the synthesis and biological evaluation of α-pept ide- […]
In the design of those analogues, four […]
peptide chemistry and medicinal chemistry.
The authors should, however, revise the manuscript for typographic and gramatical errors. As an example, the following sentence should be revised:
The manuscript was revised for typographic and grammatical errors and the sentence above was […]

For another series, the target named is T1, mouse GLP-1 receptor (Mus musculus, UniProt O35659).
T1 sequence (O35659 22-463): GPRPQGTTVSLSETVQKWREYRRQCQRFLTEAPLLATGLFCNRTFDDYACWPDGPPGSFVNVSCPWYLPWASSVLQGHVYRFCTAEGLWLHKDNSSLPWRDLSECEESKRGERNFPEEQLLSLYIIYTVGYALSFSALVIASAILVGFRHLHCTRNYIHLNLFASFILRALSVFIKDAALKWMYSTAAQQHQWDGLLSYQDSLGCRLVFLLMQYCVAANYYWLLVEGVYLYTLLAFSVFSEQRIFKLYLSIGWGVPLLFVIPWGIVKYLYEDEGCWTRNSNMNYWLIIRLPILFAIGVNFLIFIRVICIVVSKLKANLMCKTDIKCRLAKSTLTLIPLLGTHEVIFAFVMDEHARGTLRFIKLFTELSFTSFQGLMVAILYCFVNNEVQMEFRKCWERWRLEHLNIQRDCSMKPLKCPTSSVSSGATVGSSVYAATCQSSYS

Series [2] deals with fasted normal mice (C57BL/6J). Kind of series: Intraperitoneal glucose tolerance test (IPGTT) in fasted normal mice. The series is classed as in vivo, mouse. The conditions noted are these: for AUC: IPGTT 5 min (Fig 4a), blood glucose AUC 0-120 min. The procedure:
In a second study, an IPGTT was performed 30 min after i.v. injections of 1, 14 and the vehicle (Fig. 4b). […] A further IPGTT study was done with a glucose challenge after 2 h of the dosing to investigate the prolonged activity of hybrids 14, 22 and 23 (Fig. 4c).
Fig. 4 IPGTT studies in mice. a–d Intraperitoneal glucose tolerance test (IPGTT) at different time after dosing in fasted normal mice (C57BL/6J, male, 20–25 g). Dosage: 200 μg kg^−1 (50 nmol kg^−1) i.v. Formulation: 20 μg mL^−1 in PBS 1×. IPGTT: glucose 2 g kg^−1 i.p. at T0. a IPGTT after 5 min (n = 4). b IPGTT after 30 min (n = 6). c IPGTT after 2 h (n = 6). d IPGTT after 4 h (n = 3). Area under the curve (AUC) of the corresponding IPGTT curve. Data are mean ± SEM. […] Source data are provided as a Source Data file
After the acclimation period (at least 5 days), mice (male C57BL/6J mice (Charles River laboratories) 6 weeks old, 20–25 g) were randomized into groups according to their body weight. The mice were fasted for 6 h prior being acutely treated via i.v. route (5 µg per mouse i.v. (200 μg kg^−1, 50 nmol kg^−1)) formulated at 20 µg mL^−1 in PBS 1×. The IPGTTs were performed (glucose 2 g kg^−1 i.p.) 5 min, 30 min, 2 h or 4 h after dosing and blood glucose was measured at different time points after the glucose challenge.

Setting [3] is: fasted C57BL/6J mice, 200 μg kg−1 (50 nmol kg−1) i.v., glucose 2 g kg−1 i.p., n = 6.

The clearance is the volume of plasma or blood freed of the substance per unit of time. Read a low clearance as a low capacity for elimination. What is called half-life is how long it takes for the measured level to halve. The low end stands for fast loss, the high end for slow loss. In turn, `CC[C@H](C)[C@H](NC(=O)[C@H](Cc1ccccc1)NC(=O)[C@H](CCC(=O)O)NC(=O)[C@H](CCCCN)NC(=O)[C@H](C)NC(=O)[C@H](C)NC(=O)[C@H](CCC(N)=O)NC(=O)CNC(=O)[C@H](CCC(=O)O)NC(=O)[C@H](CC(C)C)NC(=O)[C@H](Cc1ccc(O)cc1)NC(=O)[C@H](CO)NC(=O)[C@H](CO)NC(=O)[C@@H](NC(=O)[C@H](CC(=O)O)NC(=O)[C@H](CO)NC(=O)[C@@H](NC(=O)[C@H](Cc1ccccc1)NC(=O)[C@@H](NC(=O)CNC(=O)[C@H](CCC(=O)O)NC(=O)CNC(=O)[C@@H](N)Cc1c[nH]cn1)[C@@H](C)O)[C@@H](C)O)C(C)C)C(=O)N[C@@H](C)C(=O)N[C@@H](Cc1c[nH]c2ccccc12)C(=O)N[C@@H](CC(C)C)C(=O)N[C@H](C(=O)N[C@@H](CCCCN)C(=O)NCC(=O)N[C@@H](CCCNC(=N)N)C(=O)NCC(N)=O)C(C)C` [compound 1, GLP-1-G^2 (GG2)] registered a clearance in series [1] (2 mg/mL in PBS 1X) of 448 mL/min/kg. Also, the half-life in series [1] turned out to be 7 min. Also, in series [1] (read-out: Vz), the Vd is 4.48 L/kg. For the same compound, the “LogEC50 (best-fit value)” value at mouse GLP-1 receptor was -9.62. Further, the “Potency (%), percentage of potency compare to GLP-1-G^2” value at mouse GLP-1 receptor (cAMP production, from EC50) worked out at 100%. The AUC in series [2] (mean of n = 4, 2018-03-08) stood at 21223 mg·min/dL; in series [2] (single animal, 1st of group) it was 20535 mg·min/dL; in series [2] (single animal, 2nd of group) it was 25208 mg·min/dL; in series [2] (single animal, 3rd of group), 19110 mg·min/dL; in series [2] (single animal, 4th of group), 20040 mg·min/dL. Further, in series [2] (fasted C57BL/6J mice, 200 μg kg−1 (50 nmol kg−1) i.v., glucose 2 g kg−1 i.p., n = 4), the “activity in IPGTT 5 min after dosing” value is on record as “both analogues were active”. In addition, the “activity in IPGTT 30 min after dosing” value in series [2] (setting [3]) was “already inactive”. In addition, the “activity in IPGTT 2 h after dosing” value in series [2] (setting [3]) is listed as “IPGTT curve similar to the vehicle”.
